Data published in patent publication EP0195841A1, “Quinolinecarboxylic acid derivatives and process for their preparation” (KYORIN PHARMACEUTICAL CO., LTD., priority 1985, dated 1986).
≈ marks a conversion by molar mass, not a printed value. Like-named read-outs stand apart in the source and are kept apart here.

Assays:
Assay in all cases: Antibacterial spectra, MIC by standard method of Japan Society of Chemotherapy
Type in all cases: cell-based
[1] = system: Pseudomonas aeruginosa V-1; conditions: 10^6 cells/ml; for ratio of activity per that of Ciprofloxacin (bracketed number): Gram −; for MIC: V1, Gram −, read-out: Minimum Inhibitory Concentration
[2] = system: Pseudomonas aeruginosa IFO 12689; conditions: 10^6 cells/ml; for ratio of activity per that of Ciprofloxacin (bracketed number): Gram −; for MIC: IFO12689, Gram −, read-out: Minimum Inhibitory Concentration
[3] = system: Bacillus subtilis PCI 219; conditions: 10^6 cells/ml; for ratio of activity per that of Ciprofloxacin (bracketed number): Gram +; for MIC: PCI219, Gram +, read-out: Minimum Inhibitory Concentration
P. morganii IID 602 = conditions: 10^6 cells/ml; for ratio of activity per that of Ciprofloxacin (bracketed number): Gram −; for MIC: Morganella morganii, IID602, Gram −, read-out: Minimum Inhibitory Concentration
[4] = system: S. aureus IID 670 (Terajima); conditions: 10^6 cells/ml; for MIC: Staphylococcus aureus, IID670, Gram +, read-out: Minimum Inhibitory Concentration
S. pneumoniae 2054 = conditions: Gram +, 10^6 cells/ml; for MIC: Streptococcus pneumoniae, read-out: Minimum Inhibitory Concentration
[5] = system: Klebsiella pneumoniae KY 6445; conditions: 10^6 cells/ml; for ratio of activity per that of Ciprofloxacin (bracketed number): Gram −; for MIC: KY6445, Gram −, read-out: Minimum Inhibitory Concentration
S. faecalis IID 682 = conditions: 10^6 cells/ml; for MIC: Enterococcus faecalis, IID682, Gram +, read-out: Minimum Inhibitory Concentration; for ratio of activity per that of Ciprofloxacin (bracketed number): Gram +
[6] = system: Bacteroides fragilis GM 7000; conditions: 10^6 cells/ml; for MIC: GM7000, Gram −, read-out: Minimum Inhibitory Concentration; for ratio of activity per that of Ciprofloxacin (bracketed number): Gram −
[7] = system: Salmonella enteritidis IID 604; conditions: Gram −, 10^6 cells/ml; for MIC: Salmonella enterica, read-out: Minimum Inhibitory Concentration
E. coli NIHJ JC-2 = conditions: for MIC: Escherichia coli
P. mirabilis IID 994 = conditions: 10^6 cells/ml; for ratio of activity per that of Ciprofloxacin (bracketed number): Gram −; for MIC: Proteus mirabilis, IID994, Gram −, read-out: Minimum Inhibitory Concentration
[8] = system: Serratia marcescens IID 618; conditions: 10^6 cells/ml; for MIC: IID618, Gram −, read-out: Minimum Inhibitory Concentration
[9] = system: S. pyogenes IID 689 (S-8); conditions: 10^6 cells/ml; for MIC: Streptococcus pyogenes, IID689, Gram +, read-out: Minimum Inhibitory Concentration
[10] = system: Bacteroides fragilis 25285; conditions: Gram −, 10^6 cells/ml; for MIC: read-out: Minimum Inhibitory Concentration
[11] = system: Staphylococcus aureus 209 P; conditions: Gram +, 10^6 cells/ml; for MIC: read-out: Minimum Inhibitory Concentration
[12] = system: Yersinia enterocolitica IID 981; conditions: 10^6 cells/ml; for ratio of activity per that of Ciprofloxacin (bracketed number): Gram −; for MIC: IID981, Gram −, read-out: Minimum Inhibitory Concentration
[13] = system: Bacteroides fragilis 0558; conditions: Gram −, 10^6 cells/ml; for MIC: read-out: Minimum Inhibitory Concentration
[14] = system: Enterobacter cloacae IID 977; conditions: 10^6 cells/ml; for ratio of activity per that of Ciprofloxacin (bracketed number): Gram −; for MIC: IID977, Gram −, read-out: Minimum Inhibitory Concentration
S. epidermidis IID 866 = conditions: 10^6 cells/ml; for ratio of activity per that of Ciprofloxacin (bracketed number): Gram +; for MIC: Staphylococcus epidermidis, IID866, Gram +, read-out: Minimum Inhibitory Concentration
[15] = system: Acinetobacter anitratus IID 876; conditions: 10^6 cells/ml; for MIC: Acinetobacter calcoaceticus, IID876, Gram −, read-out: Minimum Inhibitory Concentration
[16] = system: Proteus vulgaris IFO 3167
E. coli ATCC 10536 = conditions: 10^6 cells/ml; for MIC: Escherichia coli, ATCC10536, Gram −, read-out: Minimum Inhibitory Concentration; for ratio of activity per that of Ciprofloxacin (bracketed number): Gram −
Shigella sonnei IID 969 = conditions: 10^6 cells/ml; for ratio of activity per that of Ciprofloxacin (bracketed number): Gram −; for MIC: IID969, Gram −, read-out: Minimum Inhibitory Concentration
Method: Experiment 1. Antibacterial spectra
Antibacterial activity was determined with the standard method recommended by Japan Society of Chemotherapy.

[17] = system: Alcaligenes faecalis 0104002; conditions: Gram −, 10^6 cells/ml; for MIC: read-out: Minimum Inhibitory Concentration
[18] = system: Citrobacter freundii IID 976; conditions: 10^6 cells/ml; for ratio of activity per that of Ciprofloxacin (bracketed number): Gram −; for MIC: IID976, Gram −, read-out: Minimum Inhibitory Concentration
[19] = system: Streptococcus pyogenes IID 692; conditions: 10^6 cells/ml; for ratio of activity per that of Ciprofloxacin (bracketed number): Gram +; for MIC: IID692, Gram +, read-out: Minimum Inhibitory Concentration
[20] = E. coli NIHJ JC-2, Gram −, 10^6 cells/ml
[21] = Proteus vulgaris IFO 3167, Gram −, 10^6 cells/ml

CN1CCN(c2c(F)cc3c(=O)c(C(=O)O)cn(C4CC4)c3c2Cl)CC1 [Example 27, 8-Chloro-1-cyclopropyl-6-fluoro-1,4-dihydro-7-(4-methyl-l-piperazinyl)4-oxoquinoline-3-carboxylic acid]
ratio of activity per that of Ciprofloxacin (bracketed number) [1]: 1 | MIC [1]: 0.2 µg/mL (≈ 0.527 µM) | ratio of activity per that of Ciprofloxacin (bracketed number) [2]: 0.25 | MIC [2]: 1.56 µg/mL (≈ 4.11 µM) | ratio of activity per that of Ciprofloxacin (bracketed number) [3]: 4 | MIC [3]: 0.0125 µg/mL (≈ 0.0329 µM) | ratio of activity per that of Ciprofloxacin (bracketed number) (P. morganii IID 602): 1 | MIC (P. morganii IID 602): 0.05 µg/mL (≈ 0.132 µM) | MIC [4]: 0.1 µg/mL (≈ 0.263 µM) | MIC (S. pneumoniae 2054): 0.39 µg/mL (≈ 1.03 µM) | ratio of activity per that of Ciprofloxacin (bracketed number) [5]: 0.5 | MIC [5]: 0.025 µg/mL (≈ 0.0658 µM) | MIC (S. faecalis IID 682): 0.39 µg/mL (≈ 1.03 µM) | ratio of activity per that of Ciprofloxacin (bracketed number) (S. faecalis IID 682): 2 | MIC [6]: 0.2 µg/mL (≈ 0.527 µM) | ratio of activity per that of Ciprofloxacin (bracketed number) [6]: 16 | ratio of activity per that of Ciprofloxacin (bracketed number) [7]: 0.5 | MIC [7]: 0.05 µg/mL (≈ 0.132 µM) | ratio of activity per that of Ciprofloxacin (bracketed number) (E. coli NIHJ JC-2; [20]): 1 | MIC (E. coli NIHJ JC-2; NIHJJC2, E. coli NIHJ JC-2, Gram −, 10^6 cells/ml, read-out: Minimum Inhibitory Concentration): ≤ 0.006 µg/mL | ratio of activity per that of Ciprofloxacin (bracketed number) (P. mirabilis IID 994): 0.5 | MIC (P. mirabilis IID 994): 0.025 µg/mL (≈ 0.0658 µM) | MIC [8]: 0.05 µg/mL (≈ 0.132 µM) | MIC [9]: 0.2 µg/mL (≈ 0.527 µM) | ratio of activity per that of Ciprofloxacin (bracketed number) [10]: 32 | MIC [10]: 0.1 µg/mL (≈ 0.263 µM) | ratio of activity per that of Ciprofloxacin (bracketed number) [11]: 4 | MIC [11]: 0.1 µg/mL (≈ 0.263 µM) | ratio of activity per that of Ciprofloxacin (bracketed number) [12]: 1 | MIC [12]: 0.05 µg/mL (≈ 0.132 µM) | ratio of activity per that of Ciprofloxacin (bracketed number) [13]: 32 | MIC [13]: 0.1 µg/mL (≈ 0.263 µM) | ratio of activity per that of Ciprofloxacin (bracketed number) [14]: 1 | MIC [14]: 0.05 µg/mL (≈ 0.132 µM) | ratio of activity per that of Ciprofloxacin (bracketed number) (S. epidermidis IID 866): 4 | MIC (S. epidermidis IID 866): 0.1 µg/mL (≈ 0.263 µM) | MIC [15]: 0.025 µg/mL (≈ 0.0658 µM) | ratio of activity per that of Ciprofloxacin (bracketed number) [16, 21]: 0.5 | MIC ([16]; Proteus vulgaris, IFO3167, read-out: Minimum Inhibitory Concentration): 0.0125 µg/mL (≈ 0.0329 µM) | MIC (E. coli ATCC 10536): 0.0125 µg/mL (≈ 0.0329 µM) | ratio of activity per that of Ciprofloxacin (bracketed number) (E. coli ATCC 10536): 1 | ratio of activity per that of Ciprofloxacin (bracketed number) (Shigella sonnei IID 969): 0.5 | MIC (Shigella sonnei IID 969): 0.0125 µg/mL (≈ 0.0329 µM) | ratio of activity per that of Ciprofloxacin (bracketed number) [17]: 1 | MIC [17]: 0.39 µg/mL (≈ 1.03 µM) | ratio of activity per that of Ciprofloxacin (bracketed number) [18]: 0.25 | MIC [18]: 0.025 µg/mL (≈ 0.0658 µM) | ratio of activity per that of Ciprofloxacin (bracketed number) [19]: 4 | MIC [19]: 0.2 µg/mL (≈ 0.527 µM)

CN1CCN(c2c(F)cc3c(=O)c(C(=O)O)cn(C4CC4)c3c2F)CC1 [Reference- 2, 1-Cyclopropyl-6,8-difluoro-1,4-dihydro-7-(4-methyl-1-piperazinyl)-4-oxoquinoline-3-carboxylic acid, reference compound]
ratio of activity per that of Ciprofloxacin (bracketed number) [1]: 0.5 | MIC [1]: 0.39 µg/mL (≈ 1.07 µM) | ratio of activity per that of Ciprofloxacin (bracketed number) [2]: 1 | MIC [2]: 0.39 µg/mL (≈ 1.07 µM) | ratio of activity per that of Ciprofloxacin (bracketed number) [3]: 1 | MIC [3]: 0.05 µg/mL (≈ 0.138 µM) | ratio of activity per that of Ciprofloxacin (bracketed number) (P. morganii IID 602): 1 | MIC (P. morganii IID 602): 0.05 µg/mL (≈ 0.138 µM) | ratio of activity per that of Ciprofloxacin (bracketed number) ([4]; Gram +): 2 | MIC [4]: 0.2 µg/mL (≈ 0.55 µM) | ratio of activity per that of Ciprofloxacin (bracketed number) (S. pneumoniae 2054): 2 | MIC (S. pneumoniae 2054): 0.78 µg/mL (≈ 2.15 µM) | ratio of activity per that of Ciprofloxacin (bracketed number) [5]: 1 | MIC [5]: 0.0125 µg/mL (≈ 0.0344 µM) | MIC (S. faecalis IID 682): 0.78 µg/mL (≈ 2.15 µM) | ratio of activity per that of Ciprofloxacin (bracketed number) (S. faecalis IID 682): 1 | MIC [6]: 0.78 µg/mL (≈ 2.15 µM) | ratio of activity per that of Ciprofloxacin (bracketed number) [6]: 4 | ratio of activity per that of Ciprofloxacin (bracketed number) [7]: 0.5 | MIC [7]: 0.05 µg/mL (≈ 0.138 µM) | ratio of activity per that of Ciprofloxacin (bracketed number) (E. coli NIHJ JC-2; [20]): 0.5 | MIC (E. coli NIHJ JC-2; NIHJJC2, read-out: Minimum Inhibitory Concentration): 0.0125 µg/mL (≈ 0.0344 µM) | ratio of activity per that of Ciprofloxacin (bracketed number) (P. mirabilis IID 994): 0.5 | MIC (P. mirabilis IID 994): 0.025 µg/mL (≈ 0.0688 µM) | ratio of activity per that of Ciprofloxacin (bracketed number) ([8]; Gram −): 1 | MIC [8]: 0.39 µg/mL (≈ 1.07 µM) | ratio of activity per that of Ciprofloxacin (bracketed number) ([9]; Gram +): 0.5 | MIC [9]: 0.78 µg/mL (≈ 2.15 µM) | ratio of activity per that of Ciprofloxacin (bracketed number) [10]: 8 | MIC [10]: 0.39 µg/mL (≈ 1.07 µM) | ratio of activity per that of Ciprofloxacin (bracketed number) [11]: 4 | MIC [11]: 0.1 µg/mL (≈ 0.275 µM) | ratio of activity per that of Ciprofloxacin (bracketed number) [12]: 1 | MIC [12]: 0.05 µg/mL (≈ 0.138 µM) | MIC [13]: 0.39 µg/mL (≈ 1.07 µM) | ratio of activity per that of Ciprofloxacin (bracketed number) [14]: 1 | MIC [14]: 0.05 µg/mL (≈ 0.138 µM) | ratio of activity per that of Ciprofloxacin (bracketed number) (S. epidermidis IID 866): 2 | MIC (S. epidermidis IID 866): 0.2 µg/mL (≈ 0.55 µM) | MIC [15]: 0.0125 µg/mL (≈ 0.0344 µM) | ratio of activity per that of Ciprofloxacin (bracketed number) ([15]; Gram −): 2 | MIC ([16]; IFO3167, Proteus vulgaris IFO 3167, Gram −, 10^6 cells/ml, read-out: Minimum Inhibitory Concentration): 0.025 µg/mL (≈ 0.0688 µM) | ratio of activity per that of Ciprofloxacin (bracketed number) [16, 21]: 0.25 | MIC (E. coli ATCC 10536): 0.0125 µg/mL (≈ 0.0344 µM) | ratio of activity per that of Ciprofloxacin (bracketed number) (E. coli ATCC 10536): 1 | ratio of activity per that of Ciprofloxacin (bracketed number) (Shigella sonnei IID 969): 0.5 | MIC (Shigella sonnei IID 969): 0.0125 µg/mL (≈ 0.0344 µM) | MIC [17]: 0.02 µg/mL (≈ 0.055 µM) | ratio of activity per that of Ciprofloxacin (bracketed number) [18]: 0.25 | MIC [18]: 0.025 µg/mL (≈ 0.0688 µM) | ratio of activity per that of Ciprofloxacin (bracketed number) [19]: 1 | MIC [19]: 0.78 µg/mL (≈ 2.15 µM)
